From patent US20090247516A1, “3- (BENZO [D] [1,3] DIOXOL-5-YLMETHYL) -4- (THIO) OXO-2- (THIO) OXO-AZOLIDIN-5-YLIDENE DERIVATIVES AS ANTIBACTERIAL AGENTS” (priority 2006, published 2009) come the findings set out here.

The term IC50 denotes the point on the concentration scale where inhibition reaches its midpoint.

One test addresses E. coli MurD (Escherichia coli, UniProt P14900). Kind of test: MurD enzyme assay (Method A). It is filed as biochemical. The settings on record: for activity at 100 µM: read-out: E. coli MurD RA at 100 μM inhibitor conc. As for the experimental part:
Method A: MurD Enzyme Assay
The compounds are tested for their ability to inhibit the formation of UDP-MurNAc-L-Ala-D-[^14C]Glu in mixtures (50 μl) containing 0.1 M Tris-HCl, pH 8.6, 5 mM MgCl2, 5 mM ATP, 25 μM UDP-MurNAc-L-Ala, 25 μM D-[^14C]Glu, inhibitor (100 μM), DMSO (5%, v/v), and enzyme. After 30 min at 37° C., the reaction is stopped by addition of acetic acid (10 μl). After lyophilization, D-[^14C]Glu and of UDP-MurNAc-L-Ala-D-[^14C]Glu are separated by reverse-phase HPLC and quantitated by on-line scintillation counting. The residual activity is determined with respect to an assay with 5% DMSO and without inhibitor (taken as 100%). Values presented are means of duplicates.
IC50 values are determined with several concentrations of the inhibitor using the Hill equation:
(§1) log[vi/(vo−vi)]=−n log[l]+logK′
(§2) where vo is the rate without inhibitor, vi the rate in the presence of inhibitor and n the Hill number.

The next test deals with T1, S. aureus MurE (Staphylococcus aureus, UniProt Q2FZP6).
T1 sequence (Q2FZP6 1-493): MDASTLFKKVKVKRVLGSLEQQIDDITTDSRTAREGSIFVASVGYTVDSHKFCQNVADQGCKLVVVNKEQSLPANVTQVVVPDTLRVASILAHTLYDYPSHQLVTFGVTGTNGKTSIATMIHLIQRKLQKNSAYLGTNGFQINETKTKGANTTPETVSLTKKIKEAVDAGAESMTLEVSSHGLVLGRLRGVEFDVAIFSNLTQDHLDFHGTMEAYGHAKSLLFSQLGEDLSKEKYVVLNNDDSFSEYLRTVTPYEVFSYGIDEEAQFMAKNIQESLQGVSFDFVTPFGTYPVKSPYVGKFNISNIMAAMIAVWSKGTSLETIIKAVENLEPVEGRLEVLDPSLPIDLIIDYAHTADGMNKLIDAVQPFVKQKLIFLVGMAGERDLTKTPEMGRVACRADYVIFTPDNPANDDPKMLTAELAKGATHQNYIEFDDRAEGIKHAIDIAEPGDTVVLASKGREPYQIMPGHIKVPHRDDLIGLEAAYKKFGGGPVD
Kind of test: MurE enzyme assay (Method B). The note with it: for activity at 100 µM: residual activity at 100 μM inhibitor, assay with 5% DMSO and without inhibitor taken as 100%, means of duplicates, read-out: S. aureus MurE RA at 100 μM inhibitor conc.; for IC50: several inhibitor concentrations, Hill equation. In kind it is biochemical. The protocol:
Method B: MurE Enzyme Assay
The compounds are tested for their ability to inhibit the formation of UDP-MurNAc-L-Ala-γ-D-Glu-L-[^14C]Lys in mixtures (50 μl) containing 0.1 M Tris-HCl, pH 8.6, 15 mM MgCl2, 5 mM ATP, 100 μM UDP-MurNAc-L-Ala-γ-D-Glu, 200 μM L-[^14C]Lys (50,000 cpm), inhibitor (100 μM), DMSO (5%, v/v), and enzyme from S. aureus. After 30 min at 37° C., the reaction is stopped by addition of acetic acid (10 μl). After lyophilization, L-[^14C]Lys and of UDP-MurNAc-L-Ala-Y-D-Glu-L-[^14C]Lys are separated by reverse-phase HPLC on Nucleosil 100C18 5U (150×4.6 mm) in 50 mM ammonium formate, pH 4.7, at 0.6 ml/min, and quantitated by on-line scintillation counting using the Quicksafe Flow 2 scintillating fluid. The residual activity is determined with respect to an assay with 5% DMSO and without inhibitor (taken as 100%). Values presented are means of duplicates.
IC50 values were determined with several concentrations of the inhibitor using the Hill equation:
as §1, §2

The mark [1] stands for this setting: residual activity at 100 μM inhibitor, assay with 5% DMSO and without inhibitor taken as 100%, means of duplicates.

Where two headings read alike, the source gives them in different places. Where only a bound is given, the exact number is not on record here.

Sequence of E. coli MurD (P14900 whole entry): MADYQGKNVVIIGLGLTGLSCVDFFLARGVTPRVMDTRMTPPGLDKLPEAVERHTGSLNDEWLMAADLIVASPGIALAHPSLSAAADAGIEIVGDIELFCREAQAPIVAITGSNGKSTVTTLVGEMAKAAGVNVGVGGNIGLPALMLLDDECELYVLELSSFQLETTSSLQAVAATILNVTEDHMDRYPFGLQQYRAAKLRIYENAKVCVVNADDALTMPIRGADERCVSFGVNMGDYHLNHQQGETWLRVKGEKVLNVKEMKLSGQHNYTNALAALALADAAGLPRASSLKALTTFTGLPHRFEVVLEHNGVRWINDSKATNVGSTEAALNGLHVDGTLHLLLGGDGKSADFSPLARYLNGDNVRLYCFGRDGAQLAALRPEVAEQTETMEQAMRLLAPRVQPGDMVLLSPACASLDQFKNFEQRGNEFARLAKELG

For the compound `O=C1/C(=C/c2c(NCCCO)nc3ccccn3c2=O)SC(=S)N1Cc1ccc2c(c1)OCO2` [Example 1, (Z)-3-(benzo[d][1,3]dioxol-5-yl-methyl)-5-((2-(3-hydroxypropylamino)-4-oxo-4H-pyrido[1,2-a]pyrimidin-3-yl)methylene)-2-thioxothiazolidin-4-one], the IC50 against E. coli MurD and at S. aureus MurE was more than 100 µM each time. For the same compound, the activity at 100 µM worked out at 77% on E. coli MurD (setting [1]) and 82% on S. aureus MurE.
With `O=C1/C(=C/c2c(NCC3CCCO3)nc3ccccn3c2=O)SC(=S)N1Cc1ccc2c(c1)OCO2` (centres unmarked) [Example 3, (Z)-3-(benzo[d][1,3]dioxol-5-yl-methyl)-5-((4-oxo-2-((tetrahydrofuran-2-yl)methylamino)-4H-pyrido[1,2-a]pyrimidin-3-yl)methylene)-2-thioxothiazolidin-4-one], the IC50 on E. coli MurD is 24 µM; on S. aureus MurE, 5 µM. For the same compound, the values for the activity at 100 µM at E. coli MurD (setting [1]) and at S. aureus MurE were 7% and 4%, respectively.
Take `CNc1nc2ccccn2c(=O)c1/C=C1\SC(=S)N(Cc2ccc3c(c2)OCO3)C1=O` [Example 2, (Z)-3-(benzo[d][1,3]dioxol-5-yl-methyl)-5-((2-(methylamino)-4-oxo-4H-pyrido[1,2-a]pyrimidin-3-yl)methylene)-2-thioxothiazolidin-4-one]: on E. coli MurD, the IC50 amounted to 111 µM and the activity at 100 µM turned out to be 22%. Also, at S. aureus MurE, the activity at 100 µM is 7% and the midpoint of inhibition, the IC50, lay at 4 µM.
As for `O=C1/C(=C/c2cccc([N+](=O)[O-])c2)SC(=S)N1Cc1ccc2c(c1)OCO2` [Example 7, (Z)-3-(benzo[d][1,3]dioxol-5-yl-methyl)-5-(3-nitrobenzylidene)-2-thioxothiazolidin-4-one], the values for the IC50 against E. coli MurD and against S. aureus MurE were more than 100 µM and 7 µM, respectively. The activity at 100 µM was 98% on E. coli MurD (setting [1]) and 19% on S. aureus MurE.
The like results for `CCN(CC)c1ccc(/C=C2\SC(=S)N(Cc3ccc4c(c3)OCO4)C2=O)cc1` [Example 12, (Z)-3-(benzo[d][1,3]dioxol-5-yl-methyl)-5-(4-(diethylamino)benzylidene)-2-thioxothiazolidin-4-one] were, in that order, more than 100 µM, more than 100 µM, 78% and 59%.
As to `O=C1/C(=C/c2ccccc2O)SC(=S)N1Cc1ccc2c(c1)OCO2` [Example 8, (Z)-3-(benzo[d][1,3]dioxol-5-yl-methyl)-5-(2-hydroxybenzylidene)-2-thioxothiazolidin-4-one], the IC50 is more than 100 µM against E. coli MurD and 1.5 µM on S. aureus MurE. In addition, the activity at 100 µM on E. coli MurD (setting [1]) was 100%; at S. aureus MurE, 23%.
Consider `COc1ccc(/C=C2\SC(=S)N(Cc3ccc4c(c3)OCO4)C2=O)c(OC)c1` [Example 14, (Z)-3-(benzo[d][1,3]dioxol-5-yl-methyl)-5-(2,4-dimethoxybenzylidene)-2-thioxothiazolidin-4-one], for which the IC50 against E. coli MurD and on S. aureus MurE was more than 100 µM in each case. The activity at 100 µM on E. coli MurD (setting [1]) was 72%; at S. aureus MurE, 67%.
`O=C1/C(=C/c2c(NCCO)nc3ccccn3c2=O)SC(=S)N1Cc1ccc2c(c1)OCO2` [Example 4, (Z)-3-(benzo[d][1,3]dioxol-5-yl-methyl)-5-((2-(2-hydroxyethylamino)-4-oxo-4H-pyrido[1,2-a]pyrimidin-3-yl)methylene)-2-thioxothiazolidin-4-one]: the concentration for half-maximal inhibition (IC50) was determined as 15 µM against E. coli MurD and 4 µM against S. aureus MurE. Moreover, the activity at 100 µM on E. coli MurD (setting [1]) was found to be 26%; at S. aureus MurE, 4%.
The like results for `O=C1/C(=C/c2ccccn2)SC(=S)N1Cc1ccc2c(c1)OCO2` [Example 6, (Z)-3-(benzo[d][1,3]dioxol-5-yl-methyl)-5-(pyridin-2-yl-methylene)-2-thioxothiazolidin-4-one] were, in that order, more than 100 µM, 37 µM, 99% and 5%.
The like results for `O=C1/C(=C/c2c(NCCOCCO)nc3ccccn3c2=O)SC(=S)N1Cc1ccc2c(c1)OCO2` [Example 5, (Z)-3-(benzo[d][1,3]dioxol-5-yl-methyl)-5-((2-(2-(2-hydroxyethoxy)ethylamino)-4-oxo-4H-pyrido[1,2-a]pyrimidin-3-yl)methylene)-2-thioxothiazolidin-4-one] were, in that order, more than 100 µM, 14 µM, 71% and 10%.
For `COc1ccccc1/C=C1\SC(=S)N(Cc2ccc3c(c2)OCO3)C1=O` [Example 13, (Z)-3-(benzo[d][1,3]dioxol-5-yl-methyl)-5-(2-methoxybenzylidene)-2-thioxothiazolidin-4-one], in that order: more than 100 µM, more than 100 µM, 75% and 90%.
On to `O=C1/C(=C/c2cccc(O)c2)SC(=S)N1Cc1ccc2c(c1)OCO2` [Example 10, (Z)-3-(benzo[d][1,3]dioxol-5-yl-methyl)-5-(3-hydroxybenzylidene)-2-thioxothiazolidin-4-one], for which the IC50 is more than 100 µM on E. coli MurD and 13 µM against S. aureus MurE. Further, the activity at 100 µM at E. coli MurD (setting [1]) was 97%; at S. aureus MurE it was 31%.
For `N#Cc1nc(/C=C2/SC(=S)N(Cc3ccc4c(c3)OCO4)C2=O)oc1N1CCOCC1` [Example 9, (E)-2-((3-(benzo[d][1,3]dioxol-5-yl-methyl)-4-oxo-2-thioxothiazolidin-5-ylidene)methyl)-5-morpholinooxazole-4-carbonitrile], in that order: more than 100 µM, 51 µM, 98% and 17%.
The like results for `CN(C)c1ccc(/C=C2\SC(=S)N(Cc3ccc4c(c3)OCO4)C2=O)cc1` [Example 11, (Z)-3-(benzo[d][1,3]dioxol-5-yl-methyl)-5-(4-(dimethylamino)benzylidene)-2-thioxothiazolidin-4-one] were, in that order, more than 100 µM, 4.5 µM, 95% and 25%.
